These results are taken from patent publication US20230219942A1, “COMPOUNDS COMPRISING A THREE RING CORE AS PD-1/PD-L1 BLOCKERS” (RELIVE THERAPEUTICS INC., priority 2020, published 2023).

pIC50: −log10 of the molar value. Where two headings read alike, the source gives them in different places. Where only a bound is given, the exact number is not on record here.

One experiment addresses T1, PD-1/PD-L1 interaction (Homo sapiens, UniProt Q9NZQ7).
T1 construct: Tag1 or Tag2 (undisclosed kit tag); purchased Cisbio
Description: Cisbio PD-1/PD-L1 Homogeneous Time-Resolved Fluorescence (HTRF) binding assay. The settings on record: read-out: Reported IC50; for IC50: same result in μM. An excerpt:
The ability of compounds of the disclosure to inhibit the PD-1/PD-L1 interaction was investigated using a Cisbio PD-1/PD-L1 Homogeneous Time-Resolved Fluorescence (HTRF) binding assay (https://ca.cisbio.net/human-pd1-pd-l1-biochemical-binding-assay-44666).
With the assay, the interaction between PD-L1 and PD-1 is detected by using anti-Tag1 labeled with Europium (HTRF donor) and anti-Tag2 labeled with XL665 (HTRF acceptor). When the donor and acceptor antibodies are brought into close proximity due to PD-L1 and PD-1 binding, excitation of the donor antibody triggers fluorescence resonance energy transfer (FRET) towards the acceptor antibody, which in turn emits specifically at 665 nm. This specific signal is directly proportional to the extent of PD-1/PD-L1 interaction. Thus, a compound blocking the PD-1/PD-L1 interaction causes a reduction in the HTRF signal.
The assay was carried out in accordance with the product insert.
In general terms: TR-FRET usually uses a lanthanide donor and a delayed reading to cut background.

In another experiment the test system is PD-1. The note with it: PD-1 inhibition assay, literature value; read-out: IC50 previously reported; cited from earlier work.
For the next experiment, the target named is PD-1/PD-L1 (Homo sapiens, UniProt Q9NZQ7). The note with it: Table 11; known small molecule PD-1/PD-L1 blockers; cited from earlier work.
Chain of PD-1/PD-L1 (Q9NZQ7 19-290): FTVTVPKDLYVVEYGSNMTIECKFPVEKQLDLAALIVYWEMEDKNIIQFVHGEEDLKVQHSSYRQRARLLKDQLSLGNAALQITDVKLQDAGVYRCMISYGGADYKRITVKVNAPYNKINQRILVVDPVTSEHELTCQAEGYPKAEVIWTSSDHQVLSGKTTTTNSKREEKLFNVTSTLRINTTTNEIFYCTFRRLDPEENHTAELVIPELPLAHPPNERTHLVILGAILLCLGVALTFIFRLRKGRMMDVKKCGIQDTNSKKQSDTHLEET
[1] abbreviates: Table 10, * n = 7, median, P1 and P2 are different isomers.
Setting [2] is: Table 10, P1 and P2 are different isomers.

T1 sequence (Q9NZQ7 19-238 limits assumed): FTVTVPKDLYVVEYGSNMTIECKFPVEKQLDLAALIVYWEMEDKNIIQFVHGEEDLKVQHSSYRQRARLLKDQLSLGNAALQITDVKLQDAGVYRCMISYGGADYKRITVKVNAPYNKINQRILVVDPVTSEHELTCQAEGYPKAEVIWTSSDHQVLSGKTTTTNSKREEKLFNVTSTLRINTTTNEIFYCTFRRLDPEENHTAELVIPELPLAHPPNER

Broadly, the pIC50 is the negative decadic logarithm of the IC50, by convention in mol/L. Usually IC50 stands for the midpoint of a concentration-inhibition curve. Take `COc1cc(C(=O)N2CCN([C@H](C)c3csc(NC[C@@H]4CCCN4Cc4ccc(Br)cc4)n3)CC2)cc(OC)c1OC` [Compound A603]: on PD-1/PD-L1 interaction (Table 9), the pIC50 is 6.96 and the IC50 worked out at 0.11 µM.
For `COc1cc(C(=O)N2CCN([C@@H](C)c3csc(NC[C@@H]4CCCN4Cc4ccc(Br)cc4)n3)CC2)cc(OC)c1OC` [Compound A604], in that order: 6.67 and 0.22 µM.
In the same order, the values of `COc1cc(CN2CCN(Cc3csc(NCC4CCCN4C(=O)c4ccc(Br)cc4)n3)CC2)cc(OC)c1OC` (stereo not shown) [Compound A605] are less than 4.30 and greater than 50 µM.
Consider `COc1cc(C(=O)N2CCN(Cc3csc(N(C)C[C@@H]4CCCN4Cc4ccc(Br)cc4)n3)CC2)cc(OC)c1OC` [Compound A606], for which, at PD-1/PD-L1 interaction (Table 9), the pIC50 is less than 4.30 and the IC50 was greater than 50 µM.
As to `COc1cc(C(=O)N2C[C@H](C)N(Cc3csc(NC[C@@H]4CCCN4Cc4ccc(Br)cc4)n3)C[C@@H]2C)cc(OC)c1OC` [Compound A607], on PD-1/PD-L1 interaction (Table 9), the pIC50 was 7.02 and the IC50 came to 0.096 µM.
In the same order, the values of `COc1cc(C(=O)N2C[C@@H](C)N(Cc3csc(NC[C@@H]4CCCN4Cc4ccc(Br)cc4)n3)C[C@H]2C)cc(OC)c1OC` [Compound A608] are 5.80 and 1.6 µM.
As for `COc1cc(C(=O)N2CCN(Cc3nsc(NC[C@@H]4CCCN4Cc4ccc(Br)cc4)n3)CC2)cc(OC)c1OC` [Compound A702], at PD-1/PD-L1 interaction (setting [1]), the pIC50 was 7.82. For the same molecule, at PD-1/PD-L1 interaction (setting [2]), the IC50 was 0.015 µM.
With `COc1cc(C(=O)C2CCN(Cc3csc(NC[C@@H]4CCCN4Cc4ccc(Br)cc4)n3)CC2)cc(OC)c1OC` [Compound A703], on PD-1/PD-L1 interaction (Table 9), the pIC50 is 6.96 and the IC50 amounted to 0.11 µM.
In the case of `COc1cc(C(=O)N2CCN(Cc3csc(NC[C@@H]4C[C@@H](O)CN4Cc4ccc(Br)cc4)n3)CC2)cc(OC)c1OC` [Compound A704], at PD-1/PD-L1 interaction (Table 9), the pIC50 was 7.05 and the 50% inhibitory concentration (IC50) worked out at 0.089 µM.
In the case of `COc1cc(C(=O)N2CCN(Cc3csc(NC[C@@H]4C[C@@H](OC)CN4Cc4ccc(Br)cc4)n3)CC2)cc(OC)c1OC` [Compound A705], on PD-1/PD-L1 interaction (Table 9), the pIC50 was 6.77 and the IC50 turned out to be 0.17 µM.
For `COc1cc(C(=O)N2CCN(Cc3csc(NC[C@H]4CCCN4Cc4ccc(Br)cc4)n3)CC2)cc(OC)c1OC` [Compound A706], in that order: 4.89 and 13 µM.
In the same order, the values of `COc1cc(C(=O)N2CCN(Cc3csc(NC[C@@H]4CCCN4Cc4ccc(Cl)cc4)n3)CC2)cc(OC)c1OC` [Compound B313] are 6.69 and 0.21 µM.
As to `COc1cc(C(=O)N2CCN(Cc3nsc(NC[C@@H]4CCCN4Cc4ccc(Cl)cc4)n3)CC2)cc(OC)c1OC` [Compound B314], the pIC50 on PD-1/PD-L1 interaction (setting [1]) is 7.74. The IC50 on PD-1/PD-L1 interaction (setting [2]) was 0.018 µM.
Take `COc1cc(C(=O)N2CCN(Cc3csc(NC[C@@H]4CCCN4Cc4ccc(C(F)F)cc4)n3)CC2)cc(OC)c1OC` [Compound B315]: on PD-1/PD-L1 interaction (Table 9), the pIC50 was 6.45 and the IC50 is 0.35 µM.
In the case of `COc1cc(C(=O)N2CCN(Cc3nsc(NC[C@@H]4CCCN4Cc4ccc(C(F)F)cc4)n3)CC2)cc(OC)c1OC` [Compound B316], at PD-1/PD-L1 interaction (setting [1]), the pIC50 is 7.60. Moreover, the IC50 on PD-1/PD-L1 interaction (setting [2]) is 0.025 µM.
For `COc1cc(C(=O)N2CCN(Cc3nsc(NC[C@@H]4CCCN4Cc4ccc(C(F)(F)F)cc4)n3)CC2)cc(OC)c1OC` [Compound B317], in that order: 7.74 and 0.018 µM.
Consider `COc1cc(C(=O)N2CCN(Cc3csc(NC[C@@H]4CCCN4Cc4ccc(Br)c(F)c4)n3)CC2)cc(OC)c1OC` [Compound B318], for which, at PD-1/PD-L1 interaction (Table 9), the pIC50 is 7.04 and the IC50 worked out at 0.092 µM.
For `COc1cc(C(=O)N2CCN(Cc3nsc(NC[C@@H]4CCCN4Cc4ccc(Br)c(F)c4)n3)CC2)cc(OC)c1OC` [Compound B319], the pIC50 at PD-1/PD-L1 interaction (setting [1]) was 7.82. For the same molecule, the IC50 at PD-1/PD-L1 interaction (setting [2]) came out at 0.015 µM.
With `Cc1ccc(C(=O)N2CCN(Cc3csc(NC[C@@H]4CCCN4Cc4ccc(Br)cc4)n3)CC2)cc1` [Compound B408], at PD-1/PD-L1 interaction (Table 9), the pIC50 was less than 4.30 and the IC50 was greater than 50 µM.
As for `Cc1ccc(C(=O)N2CCN(Cc3nsc(NC[C@@H]4CCCN4Cc4ccc(Br)cc4)n3)CC2)cc1` [Compound B409], the pIC50 on PD-1/PD-L1 interaction (setting [1]) was 6.19. Also, the IC50 on PD-1/PD-L1 interaction (setting [2]) came to 0.65 µM.
As to `O=C(c1ccc(Cl)cc1)N1CCN(Cc2csc(NCC3CCCN3Cc3ccc(Br)cc3)n2)CC1` (stereo not shown) [Compound B410], on PD-1/PD-L1 interaction (Table 9), the pIC50 is less than 5.30 and the IC50 is greater than 5 µM.
Regarding `O=C(c1ccc(Cl)cc1)N1CCN(Cc2nsc(NC[C@@H]3CCCN3Cc3ccc(Br)cc3)n2)CC1` [Compound B411], the pIC50 at PD-1/PD-L1 interaction (setting [1]) is 5.99. For the same molecule, on PD-1/PD-L1 interaction (setting [2]), the IC50 worked out at 1 µM.
In the same order, the values of `O=C(c1ccccc1)N1CCN(Cc2nsc(NC[C@@H]3CCCN3Cc3ccc(Br)cc3)n2)CC1` [Compound B412] are 5.36 and 4.4 µM.
Regarding `O=C(c1ccc(=O)[nH]c1)N1CCN(Cc2nsc(NC[C@@H]3CCCN3Cc3ccc(Br)cc3)n2)CC1` [Compound B413], at PD-1/PD-L1 interaction (setting [1]), the pIC50 was 6.36. The IC50 at PD-1/PD-L1 interaction (setting [2]) worked out at 0.44 µM.
For `Cn1cc(C(=O)N2CCN(Cc3csc(NC[C@@H]4CCCN4Cc4ccc(Br)cc4)n3)CC2)ccc1=O` [Compound B414], at PD-1/PD-L1 interaction (Table 9), the pIC50 is less than 5.30 and the IC50 was greater than 5 µM.
With `Cn1cc(C(=O)N2CCN(Cc3nsc(NC[C@@H]4CCCN4Cc4ccc(Br)cc4)n3)CC2)ccc1=O` [Compound B415], the pIC50 at PD-1/PD-L1 interaction (setting [1]) is 6.67. In addition, the half-maximal inhibitory concentration (IC50) on PD-1/PD-L1 interaction (setting [2]) is 0.22 µM.
In the same order, the values of `COc1cc(C(=O)N2CCN(Cc3cc(NC[C@@H]4CCCN4Cc4ccc(Br)cc4)sn3)CC2)cc(OC)c1OC` [Compound B708] are 7.55 and 0.028 µM.
For `COc1cc(C(=O)N2CCN(Cc3nccc(NC[C@@H]4CCCN4Cc4ccc(Br)cc4)n3)CC2)cc(OC)c1OC` [Compound B709], in that order: 5.10 and 8 µM.
Turning to `COc1cc(C(=O)N2CCN(Cc3nsc(NC[C@@H]4CCCCN4Cc4ccc(Br)cc4)n3)CC2)cc(OC)c1OC` [Compound B710], the pIC50 at PD-1/PD-L1 interaction (setting [1]) is 7.02. In addition, the IC50 at PD-1/PD-L1 interaction (setting [2]) is 0.096 µM.
For `COc1cc(C(=O)N2CCN(Cc3nsc(NC[C@@H]4C[C@@H](O)CN4Cc4ccc(Br)cc4)n3)CC2)cc(OC)c1OC` [Compound B802], in that order: 7.92 and 0.012 µM.
In the same order, the values of `COc1cc(C(=O)N2C[C@H](C)N(Cc3nsc(NC[C@@H]4CCCN4Cc4ccc(Br)cc4)n3)C[C@@H]2C)cc(OC)c1OC` [Compound B804] are 7.68 and 0.021 µM.
For `COc1cc(C(=O)N2CCN([C@H](C)c3nsc(NC[C@@H]4CCCN4Cc4ccc(Br)cc4)n3)CC2)cc(OC)c1OC` [Compound B805], in that order: 7.85 and 0.014 µM.
`COc1cc(C(=O)N2CCN([C@@H](C)c3nsc(NC[C@@H]4CCCN4Cc4ccc(Br)cc4)n3)CC2)cc(OC)c1OC` [Compound B806]: the pIC50 at PD-1/PD-L1 interaction (setting [1]) was 7.92. In addition, the IC50 at PD-1/PD-L1 interaction (setting [2]) was 0.012 µM.
In the same order, the values of `COc1cc(C(=O)N2CCN(Cc3nsc(NC[C@@H]4C[C@@H](O)CN4[C@@H](C)c4ccc(Br)cc4)n3)CC2)cc(OC)c1OC` [Compound B910] are 7.36 and 0.044 µM.
With `COc1cc(C(=O)N2C[C@H](C)N(Cc3nsc(NC[C@@H]4C[C@@H](O)CN4Cc4ccc(Br)cc4)n3)C[C@@H]2C)cc(OC)c1OC` [Compound B911], the pIC50 at PD-1/PD-L1 interaction (setting [1]) was 7.48. Moreover, on PD-1/PD-L1 interaction (setting [2]), the IC50 amounted to 0.033 µM.
`COc1cc(OCc2cccc(-c3ccccc3)c2C)cc(OC)c1CN1CCCCC1C(=O)O` (stereo not shown) [Compound S7911]: in the experiment on PD-1, the pIC50 was 8.22.
Consider `CS(=O)(=O)c1cncc(COc2cc(OCc3cccc(-c4cccc(-c5ccc6c(c5)C[C@@H](N)C6)c4Cl)c3Cl)c(Br)cc2CN2CCCC[C@H]2C(=O)O)c1` [GS-4224, Example A], for which the KD/IC50 on PD-1/PD-L1 is reported as 0.09 nM.
Regarding `Cc1c(Nc2nc(C(F)F)nc3cc(CN4CC[C@](C)(O)C4)cnc23)cccc1-c1cccc(-c2nc3cc(CN4CCC(C(=O)O)CC4)cc(C#N)c3o2)c1C` [INB086550], the KD/IC50 at PD-1/PD-L1 is less than 10 nM.
